Data taken from US5063243A, “Derivative of caffeic acid and pharmaceutical composition containing the same” (Suntory, Ltd., priority 1988, dated 1991).

Tests used:
Type in all cases: biochemical
12-lipoxygenase [1] = molecular target: T1, 12-lipoxygenase (Rattus norvegicus, UniProt F1LQ70); assay: 12-lipoxygenase inhibitory activity, Method 1 (washed rat platelet, 12-HETE production); settings: sample compound 10 μM, 3 to 5 minutes at 37° C., control without sample compound = 100%, read-out: production index of 12-HETE, Method 1 (%)
T1 construct: Washed platelet was prepared in the usual way; from tissue; host or cells: rat blood platelets (Method 1: washed platelets; Method 2: frozen, thawed and ultrasonified platelets; Method 3: platelet soluble fraction after freeze-thaw and centrifugation)
T1 sequence (F1LQ70 1-663): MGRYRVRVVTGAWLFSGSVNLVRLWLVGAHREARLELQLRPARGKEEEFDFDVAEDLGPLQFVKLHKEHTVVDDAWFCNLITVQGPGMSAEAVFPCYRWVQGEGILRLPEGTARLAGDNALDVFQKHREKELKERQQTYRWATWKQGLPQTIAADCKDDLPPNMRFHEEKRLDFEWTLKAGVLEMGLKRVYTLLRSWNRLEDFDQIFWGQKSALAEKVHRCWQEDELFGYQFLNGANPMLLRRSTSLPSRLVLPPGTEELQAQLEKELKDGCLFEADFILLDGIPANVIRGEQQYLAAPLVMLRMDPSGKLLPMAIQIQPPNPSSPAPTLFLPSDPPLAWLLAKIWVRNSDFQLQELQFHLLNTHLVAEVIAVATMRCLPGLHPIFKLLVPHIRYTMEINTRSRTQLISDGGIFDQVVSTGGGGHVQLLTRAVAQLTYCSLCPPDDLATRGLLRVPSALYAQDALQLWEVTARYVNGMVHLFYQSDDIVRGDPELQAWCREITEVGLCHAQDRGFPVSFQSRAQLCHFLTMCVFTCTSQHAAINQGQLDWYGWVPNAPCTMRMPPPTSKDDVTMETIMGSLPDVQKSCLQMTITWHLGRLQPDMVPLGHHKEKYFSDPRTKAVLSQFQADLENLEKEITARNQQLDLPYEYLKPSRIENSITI
Protocol: (§1) The 12-lipoxygenase inhibitory activity of the compounds of the present invention was measured by conducting the three types of pharmacological tests described below.
Citrated blood was collected from the abdominal aorta of a rat. Washed platelet was prepared in the usual way, diluted with phosphate buffer (pH=8.0) containing 0.45% NaCl and used as the enzyme solution. To the solution were added the sample compound (10 μM), [^14 C]arachidonicacid (0.2 μCi) and arachidonic acid (3 μg) and the mixture was reacted for 3 to 5 minutes at 37° C. The reaction mixture was developed by thin layer chromatography and 12-HETE was identified by a radio chromato scanner. The reduction in 12-HETE production which resulted was used as the index of 12-lipoxygenase inhibitory activity.
(§2) The production indexes of 12-HETE under the inhibitory influence of the compounds of the present invention are shown in Table 2, where the production amount of the control experiment (in the absence of the sample compound) is 100%.

12-lipoxygenase [2] = molecular target: T1, 12-lipoxygenase; assay: 12-lipoxygenase inhibitory activity, Method 2 (ultrasonified rat platelet enzyme solution, 12-HETE production); settings: 5 min, sample compound 1 μM, arachidonic acid 4.3 μM, 5 minutes at 37° C., control without sample compound = 100%, read-out: production index of 12-HETE, Method 2 (%)
Protocol: The 12-lipoxygenase inhibitory activity of the compounds of the present invention was measured by conducting the three types of pharmacological tests described below. Citrated blood was collected from the heart of a rat and platelet-rich plasma was prepared in the usual way. The plasma was washed twice with isotonic buffer solution (A) [134 mM NaCl, 5 mM D-glucose, 1 mM EDTA, 1 mM EGTA, 15 mM Tris-HCl (pH=7.4)], frozen and stored at -80° C. It was thawed before use, ultrasonified in ice water and used as the enzyme solution. To the isotonic buffer solution (A) were added 1 mM GSH, the sample compound (final concentration: 1 μM) and the enzyme solution (300 to 500 μg protein) and the mixture was pre-incubated for 5 minutes at 37° C.; then [^14 C]arachidonic acid (0.05 μCi) (final concentration: 4.3 μM) was further added and reacted for 5 minutes. […] The reduction in 12-HETE production was used as the index of 12-lipoxygenase inhibitory activity.

12-lipoxygenase [3] = molecular target: T1, 12-lipoxygenase; assay: 12-lipoxygenase inhibitory activity, Method 3 (rat platelet soluble fraction, 12-HETE production); settings: 5 min, sample compound 10 μM, arachidonic acid 40 μM, 5 minutes at 37° C., control without sample compound = 100%, read-out: production index of 12-HETE, Method 3 (%)
Protocol: as §1
The platelet-rich plasma obtained in the same way as described in Method 2 was washed successively with isotonic buffer solution (A) and isotonic buffer solution (B) [134 mM NaCl, 5 mM D-glucose, 0.1 mM DETA, 0.1 mM EGTA, 15 mM Tris-HCl (pH=7.4)] in that order, and suspended in a hypotonic buffer solution (C) [25 mM Tris-HCl (pH=7.7)]. The suspension was treated by a "freeze-thaw" procedure three times and centrifuged at 10500× g for 60 minutes. An aliquot of the supernatant (platelet soluble fraction) was used as the enzyme solution. To the hypotonic buffer solution (C) were added 1 mM GSH, [^14 C]arachidonic acid (0.025 μCi) (final concentration: 40 μM), the sample compound (final concentration: 10 μM) and the enzyme solution (50 μg protein) and the mixture was reacted for 5 minutes at 37° C. The index of 12-lipoxygenase inhibitory activity was obtained in the same way as described in Method 2.
as §2

SMILES | activity at 10 µM (12-lipoxygenase [1]) | activity at 1 µM (12-lipoxygenase [2]) | activity at 10 µM (12-lipoxygenase [3])
O=c1cc(-c2ccccc2)oc2cc(O)c(O)c(O)c12 [Baicalein, baicalein, reference compound] | 27% | 9.8% | 22.7%
CCOC(=O)C(C#N)=Cc1ccc(O)c(O)c1 [Compound No. 1, Ethyl 2-cyano-3-(3,4-dihydroxyphenyl)-2-propenoate] | 38.1% |  | 
COC(=O)C(C#N)=Cc1ccc(O)c(O)c1 [Compound No. 5, methyl 2-cyano-3-(3,4-dihydroxyphenyl)-2-propenoate] | 36% |  | 
CC(C)OC(=O)C(C#N)=Cc1ccc(O)c(O)c1 [Compound No. 6, isopropyl 2-cyano-3-(3,4-dihydroxyphenyl)-2-propenoate] | 31.4% |  | 
N#CC(=Cc1ccc(O)c(O)c1)C(=O)OCCc1ccccc1 [Compound No. 9, Phenethyl 2-cyano-3-(3,4-dihydroxyphenyl)-2-propenoate] |  | 10% | 25.1%
N#CC(=Cc1ccc(O)c(O)c1)C(=O)OCCCc1ccccc1 [compound 10, Phenylpropyl 2-cyano-3-(3,4-dihydroxyphenyl)-2-propenoate] |  | 12.1% | 
N#CC(=Cc1ccc(O)c(O)c1)C(=O)OCCCCc1ccccc1 [compound 11, Phenylbutyl 2-cyano-3-(3,4-dihydroxyphenyl)-2-propenoate] |  | 14.2% | 

Continued, values first:

activity at 10 µM (12-lipoxygenase [1]) | activity at 1 µM (12-lipoxygenase [2]) | activity at 10 µM (12-lipoxygenase [3]) | SMILES
 |  | 19.5% | COc1ccc(CCOC(=O)C(C#N)=Cc2ccc(O)c(O)c2)cc1 [compound 13, 4-Methoxyphenethyl 2-cyano-3-(3,4-dihydroxyphenyl)-2-propenoate]
 |  | 19.1% | COc1ccccc1CCOC(=O)C(C#N)=Cc1ccc(O)c(O)c1 [compound 14, 2-Methoxyphenethyl 2-cyano-3-(3,4-dihydroxyphenyl)-2-propenoate]
 | 8.7% |  | N#CC(=Cc1ccc(O)c(O)c1)C(=O)OCCc1cccs1 [compound 15, 2-(2-Thienyl)ethyl 2-cyano-3-(3,4-dihydroxyphenyl)-2-propenoate]
 | 13.2% |  | N#CC(=Cc1ccc(O)c(O)c1)C(=O)OCC=Cc1ccccc1 [compound 17, 3-Phenyl-2-propenyl 2-cyano-3-(3,4-dihydroxyphenyl)-2-propenoate]
 | 8.5% |  | N#CC(=Cc1ccc(O)c(O)c1)C(=O)OCCOc1ccccc1 [compound 18, 2-Phenoxyethyl 2-cyano-3-(3,4-dihydroxyphenyl)-2-propenoate]
